Experimental data as given in patent publication US9844546B2, “Antibody against human HIF hydroxylase” (OXFORD UNIVERSITY INNOVATION LIMITED, priority 2001, dated 2017).
Entries after “also recorded” stand apart in the source; their conditions may differ.

Assays:
[1] = tested on: C. elegans; experiment: Immunoblot of ceHIF (HIF-1) in extracts of treated worms; type: in vivo; conditions: 1 mM, 21% oxygen, wild type worms
Experimental: Immunoblots of ceHIF levels in extracts of c. elegans were carried out to monitor regulation by hypoxia and iron chelation. Firstly, the oxygen dependence of protein induction was analysed. Worms were grown on plates in bell jars flushed with air (N), or with oxygen/balance nitrogen having an oxygen concentration of 5%, 1%, 0.5% or 0.1% for 18 hrs. A graded increase in protein level was seen as the oxygen level was reduced below 5% with the highest level of induction at 0.5 and 0.1% oxygen concentration. The time course of protein induction was then studied. Worms were grown in bell jars flushed with a 0.1% oxygen/balance nitrogen mixture for 0, 4, 8, 16 or 24 hrs before preparation of extracts. […] The time course of protein decay on re-oxygenation was then assessed. Worms were grown in bell jars flushed with air (N) or a 0.1% oxygen/balance nitrogen mixture. Extracts were made either immediately, or after 4 and 8 minutes of re-oxygenation. Decay of ceHIF protein was very rapid on re-oxygenation. […] A time course RNAse protection assay showing cehif mRNA levels in worms exposed to 0.1% oxygen/balance nitrogen for 0, 4, 8, 16 and 24 hrs was carried out. No induction of ceHIF mRNA by hypoxia was seen. […] Induction by iron chelation was also studied in C. elegans. […]

[2] = tested on: angiogenesis in subcutaneous polyurethane sponge; experiment: Murine subcutaneous sponge angiogenesis assay; type: in vivo, mouse; conditions: 1 mM, 100 microliters injected days 1, 2, 4, 5; day 7; versus solvent
Experimental: Implantation of a polyurethane sponge subcutaneously in a mouse provides an inflammatory stimulus to angiogenesis and is a well established model for assessing the pro- and anti-angiogenic effects of compounds. To test the effects of dimethyl oxalylglycine in vivo, sterile 8 mm sponge discs were inserted under the dorsal skin of C57 Black mice on Day 0. Test solutions were injected through the skin into the sponges of mice once per day on days 1, 2, 4 and 5. Individual mice received 100 microliters aliquots of either sterile dimethyloxalylglycine (0.1 mM, 1 mM or 10 mM) or carrier solution. Animals were sacrificed on day 7 and the sponges removed. The sponges were fixed in 3.7% formaldehyde, paraffin embedded and stained immunohistochemically for von Willebrand factor to identify blood vessels.
Artificial activation of the HIF signalling pathway using the methods of the invention should induce angiogenesis and will therefore be of potential therapeutic use in ischaemic disease. We tested the effect of polypeptide induced HIF stabilisation in an in vitro angiogenesis assay, co-culturing human microvascular endothelial cells (HMEC-1) with empty vector transfected or doxCODD cells. In view of the possibility of sustained activation inducing a negative feedback loop we opted to test the effects of intermittent induction. […]

[3] = tested on: HIF hydroxylase (HPH activity); experiment: HIF hydroxylase (HPH) inhibition, statements of the description; type: biochemical

inhibition of HIF hydroxylase / HPH [3]: act as inhibitors
Structure (SMILES): COC(=O)CNC(=O)C(=O)OC [dimethyloxalylglycine]
ceHIF (HIF-1) protein level in normoxia [1]: substantial increase in the amount of immunodetectable ceHIF; also recorded: strongly induced HIF-1
blood vessels in sponges (von Willebrand factor) [2]: Considerably more blood vessels
